Our source for the IC50 values is patent EP0889878B1 (Merck Frosst Canada & Co., priority 1996, dated 1997).

In one experiment the target is T1, COX-1 (Homo sapiens, UniProt P23219).
T1 construct: human U-937 cells (which specifically express COX-1); endogenous in cells; host or cells: human U-937 cells
Kind of experiment: Whole cell cyclooxygenase assay in U-937 cells (COX-1, inhibition of PGE2 production). The format is cell-based. Here is the method: Compounds are tested as inhibitors of cyclooxygenase activity in whole cell cyclooxygenase assays. Both of these assays measure prostaglandin E2 synthesis in response to arachidonic acid, using a radioimmunoassay. Cells used for these assays are human osteosarcoma 143 cells (which specifically express COX-2) and human U-937 cells (which specifically express COX-1). In these assays, 100% activity is defined as the difference between prostaglandin E2 synthesis in the absence and presence of arachidonate.
For cyclooxygenase assays, osteosarcoma cells are cultured in 1 mL of media in 24-well multidishes (Nunclon) until confluent (1-2 x 10^5 cells/well). U-937 cells are grown in spinner flasks and resuspended to a final density of 1.5 x 10^6 cells/mL in 24-well multidishes (Nunclon). Following washing and resuspension of osteosarcoma and U-937 cells in 1 mL of HBSS, 1 µL of a DMSO solution of test compound or DMSO vehicle is added, and samples gently mixed. All assays are performed in triplicate. Samples are then incubated for 5 or 15 minutes at 37C, prior to the addition of arachidonic acid. Arachidonic acid (peroxide-free, Cayman Chemical) is prepared as a 10 mM stock solution in ethanol and further diluted 10-fold in HBSS. An aliquot of 10 µL of this diluted solution is added to the cells to give a final arachidonic acid concentration of 10 µM. Control samples are incubated with ethanol vehicle instead of arachidonic acid. Samples are again gently mixed and incubated for a further 10 min. at 37C. For osteosarcoma cells, reactions are then stopped by the addition of 100 µL of 1N HCl, with mixing and by the rapid removal of the solution from cell monolayers. For U-937 cells, reactions are stopped by the addition of 100 µL of IN HCl, with mixing. Samples are then neutralized by the addition of 100 µL of 1N NaOH and PGE2 levels measured by radioimmunoassay.
In the assay, inhibition is determined by measuring the amount of prostaglandin E2 (PGE2) synthesized in the presence of arachidonic acid, COX-1 or COX-2 and a putative inhibitor.
The results for inhibition of PGE2 production may be seen in Table 7.

Another experiment concerns the target T2, COX-2 (Homo sapiens, UniProt P35354).
T2 construct: expressed in transfected cells; host or cells: CHO cells stably transfected with pCDNAIII (CHO[hCOX-2])
T2 sequence (P35354 18-604): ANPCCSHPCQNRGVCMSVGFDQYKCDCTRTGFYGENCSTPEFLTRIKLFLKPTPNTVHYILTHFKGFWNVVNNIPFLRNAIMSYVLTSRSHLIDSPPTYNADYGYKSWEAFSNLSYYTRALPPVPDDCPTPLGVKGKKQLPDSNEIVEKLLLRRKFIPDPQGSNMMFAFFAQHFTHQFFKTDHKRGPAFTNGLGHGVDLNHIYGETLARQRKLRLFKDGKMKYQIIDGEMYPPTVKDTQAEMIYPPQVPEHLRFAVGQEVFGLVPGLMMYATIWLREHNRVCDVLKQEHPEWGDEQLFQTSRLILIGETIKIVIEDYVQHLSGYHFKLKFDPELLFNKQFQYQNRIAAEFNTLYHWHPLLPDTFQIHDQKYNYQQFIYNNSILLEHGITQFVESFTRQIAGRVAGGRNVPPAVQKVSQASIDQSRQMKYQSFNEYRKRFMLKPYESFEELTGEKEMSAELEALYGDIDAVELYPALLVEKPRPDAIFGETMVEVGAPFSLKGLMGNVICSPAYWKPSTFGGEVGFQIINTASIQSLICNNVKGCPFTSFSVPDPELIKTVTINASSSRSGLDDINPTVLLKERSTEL
In words: Whole cell assay for COX-2 using CHO transfected cell lines (inhibition of PGE2 production). The format is cell-based. Here is the method: Chinese hamster ovary (CHO) cell lines which have been stably transfected with an eukaryotic expression vector pCDNAIII containing either the human COX-1 or COX-2 cDNA's are used for the assay. These cell lines are referred to as CHO [hCOX-1] and CHO [hCOX-2], respectively. For cyclooxygenase assays, CHO[hCOX-1] cells from suspension cultures and CHO[hCOX-2] cells prepared by trypsinization of adherent cultures are harvested by centrifugation (300 x g, 10 min) and washed once in HBSS containing 15 mM HEPES, pH 7.4, and resuspended in HBSS, 15 mM HEPES, pH 7.4, at a cell concentration of 1.5 x 10^6 cells/ml. […] Cells are then challenged in the presence or absence of drug with the AA/HBSS solution to yield a final concentration of 0.5 µM AA in the CHO[hCOX-1] assay and a final concentration of 10 µM AA in the CHO[hCOX-2] assay. […] Cyclooxygenase activity in the absence of test compounds is determined as the difference in PGE2 levels of cells challenged with arachidonic acid versus the PGE2 levels in cells mock-challenged with ethanol vehicle. Inhibition of PGE2 synthesis by test compounds is calculated as a percentage of the activity in the presence of drug versus the activity in the positive control samples.
In the assay, inhibition is determined by measuring the amount of prostaglandin E2 (PGE2) synthesized in the presence of arachidonic acid, COX-1 or COX-2 and a putative inhibitor. […]

T1 sequence (P23219 24-599): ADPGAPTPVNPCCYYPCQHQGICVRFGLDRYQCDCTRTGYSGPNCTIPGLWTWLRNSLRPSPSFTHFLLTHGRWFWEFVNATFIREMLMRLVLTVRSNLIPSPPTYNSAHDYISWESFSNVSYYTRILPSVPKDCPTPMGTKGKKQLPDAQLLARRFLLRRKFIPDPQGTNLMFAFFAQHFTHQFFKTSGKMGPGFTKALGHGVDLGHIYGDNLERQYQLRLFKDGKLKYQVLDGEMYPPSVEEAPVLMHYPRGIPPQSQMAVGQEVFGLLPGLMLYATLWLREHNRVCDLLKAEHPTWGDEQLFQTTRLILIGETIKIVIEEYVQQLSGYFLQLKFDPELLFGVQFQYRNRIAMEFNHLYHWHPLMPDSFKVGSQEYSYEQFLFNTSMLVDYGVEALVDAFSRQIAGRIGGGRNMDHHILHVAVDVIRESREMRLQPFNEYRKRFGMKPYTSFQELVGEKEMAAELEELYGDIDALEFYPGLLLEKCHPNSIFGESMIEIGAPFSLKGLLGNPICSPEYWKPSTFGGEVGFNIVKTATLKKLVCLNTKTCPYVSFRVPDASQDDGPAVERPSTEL

Regarding `CC1(C)C(=O)C(c2ccc(S(C)(=O)=O)cc2)=C1c1ccccc1` [Example 30, 4,4-dimethyl-2-(4-methylsulfonylphenyl)-3-phenyl-2-cyclobuten-1-one], on COX-1, the IC50 (usually the concentration at which inhibition is half-maximal) was 1100 nM. `C=C1CC(c2ccc(S(C)(=O)=O)cc2)=C1c1ccccc1` [Example 39, 3-Methylene-1-(4-methylsulfonylphenyl)-2-phenyl-1-cyclobutene]: it took 1000 nM to reach half-maximal inhibition at COX-1 (IC50).

Turning to `CC1(c2ccsc2)C(=O)C(c2ccccc2)=C1c1ccc(S(C)(=O)=O)cc1` (stereo not drawn) [Example 6, 4-Methyl-3-(4-methylsulfonylphenyl)-2-phenyl-4-(3-thienyl)-2-cyclobuten-1-one], the values for the IC50 against COX-2 and against COX-1 were 25 nM and 2000 nM, respectively. For `C/C(CO)=C1\CC(c2ccc(S(C)(=O)=O)cc2)=C1c1ccccc1` [Example 42] the same measures were 22 nM and 1500 nM.
